In brackets after ≈: the same amount, converted by molar mass. Activity calls are given as the source filed them. No cut-off for these calls is given here.
Columns and labels:
[1] = Antioxidant activity assessed as inhibition of AAPH-induced lipid peroxidation after 3 hrs by TBA-MDA test; assay type: physicochemical
[2] = Antioxidant activity assessed as inhibition of AAPH-induced lipid peroxidation at 200 ug/ml after 3 hrs by TBA-MDA test; assay type: physicochemical
[3] = test system: Pseudomonas aeruginosa; assay: Antibacterial activity against Pseudomonas aeruginosa ATCC 9027 by broth microdilution method; assay type: functional
[4] = test system: Staphylococcus aureus; assay: Antibacterial activity against Staphylococcus aureus ATCC 6538 by broth microdilution method; assay type: functional
[5] = test system: Salmonella enterica subsp. enterica serovar Abony; assay: Antibacterial activity against Salmonella abony NCTC 6017 by broth microdilution method; assay type: functional
[6] = test system: Escherichia coli; assay: Antibacterial activity against Escherichia coli ATCC 8739 by broth microdilution method; assay type: functional
[7] = test system: Bacillus spizizenii; assay: Antibacterial activity against Bacillus subtilis ATCC 6633 by broth microdilution method; assay type: functional

Row | IC50 [1] [µg/mL] | inhibition (INH) [2] [%] | Compound | MIC [3] | MIC [4] | MIC [5] | MIC [6] | MIC [7]
1 | 3.79 (≈ 21 µM) | 99.98 | O=C(O)/C=C/c1ccc(O)c(O)c1 [CAFFEIC ACID] |  |  |  |  | 
2 | 85.51 (≈ 201 µM) | 60.8 | O=C(c1ccccc1)c1ccc2c(c1)nc1s/c(=C\c3ccc4c(c3)OCO4)c(=O)n12 |  |  |  |  | 
3 | 86.97 (≈ 217 µM) | 75.76 | O=C(c1ccccc1)c1ccc2c(c1)nc1s/c(=C\c3ccccc3F)c(=O)n12 |  |  |  |  | 
4 | 7.74 (≈ 30.9 µM) | 85.61 | Cc1c(C)c2c(c(C)c1O)CCC(C)(C(=O)O)O2 (stereo unspecified) [TROLOX] |  |  |  |  | 
5 |  |  | C[C@H]1c2cccc(O)c2C(=O)C2=C(O)[C@]3(O)C(=O)C(C(N)=O)=C(O)[C@@H](N(C)C)[C@@H]3[C@@H](O)[C@@H]21.O [DOXYCYCLINE] | 12.5 µg/mL | 0.78 µg/mL | 6.25 µg/mL | 0.78 µg/mL | 1.56 µg/mL
6 | 53.7 (≈ 134 µM) | 90.76 | O=C(c1ccccc1)c1ccc2c(c1)nc1s/c(=C\c3ccc(F)cc3)c(=O)n12 |  |  |  |  | 
7 | 74.11 (≈ 180 µM) | 80.35 | COc1ccccc1/C=c1\sc2nc3cc(C(=O)c4ccccc4)ccc3n2c1=O |  |  |  |  | 
8 | 9.12 (≈ 51.8 µM) | 99.9 | O=C1O[C@H]([C@@H](O)CO)C(O)=C1O [ASCORBIC ACID] |  |  |  |  | 

Row | Compound | IC50 [1] [µg/mL] | inhibition (INH) [2] [%] | MIC [3] | MIC [4] | MIC [5] | MIC [6] | MIC [7]
9 | O=c1c(O)c(-c2ccc(O)c(O)c2)oc2cc(O)cc(O)c12 [QUERCETIN] | 10.47 (≈ 34.6 µM) | 91.12 |  |  |  |  | 
10 | Cc1ccc2c(c1)n(CC(=O)c1ccccc1)c(=N)n2CC(=O)c1ccccc1 | > 200 | 39.26 | inactive | 500 µg/mL (≈ 1300 µM) | inactive | inactive | 500 µg/mL (≈ 1300 µM)
11 | N=c1n(CC(=O)c2ccccc2)c2ccc([N+](=O)[O-])cc2n1CC(=O)c1ccccc1 | > 200 | 23.43 | inactive | inactive | inactive | inactive | 1000 µg/mL (≈ 2410 µM)
12 | CCOC(=O)Cn1c(=N)n(CC(=O)OCC)c2cc(C)ccc21 | 176.58 (≈ 553 µM) | 55.87 | inactive | inactive | inactive | inactive | inactive
13 | Cc1ccc2c(c1)n(CCCc1ccccc1)c(=N)n2CCCc1ccccc1 | 144.88 (≈ 378 µM) | 62.15 | inactive | 16 µg/mL (≈ 41.7 µM) | 500 µg/mL (≈ 1300 µM) | 500 µg/mL (≈ 1300 µM) | 125 µg/mL (≈ 326 µM)
14 | CCOC(=O)Cn1c(=N)n(CC(=O)OCC)c2cc(C(=O)c3ccccc3)ccc21 | 141.89 (≈ 347 µM) | 74.04 | inactive | inactive | inactive | inactive | inactive
